Source: US20230096051A1, “CGRP ANTIGONISTS USEFUL AS TRACER COMPOUNDS FOR POSITRON EMISSION TOMOGRAPHY” (Eli Lilly and Company, priority 2019, published 2023)

Experiments:
[1] = molecular target: T1, hCGRP (human calcitonin gene-related peptide) receptor (Homo sapiens, UniProt O60894+Q16602); test: Inhibition of cAMP production by CGRP receptor antagonists in SK-N-MC neuroblastoma cells (HTRF); type: cell-based; conditions: human CGRP 0.8 nM as agonist, Kb estimated as agonist-corrected IC50, read-out: hCGRP Kb ± SD
T1 construct: Cultured SK-N-MC neuroblastoma cells that endogenously express the hCGRP receptor (ATCC); host or cells: SK-N-MC neuroblastoma cells
Procedure: The hCGRP (human calcitonin gene-related peptide) receptor is functionally coupled to the Gas proteins. Stimulation by hCGRP results in an increased synthesis of intracellular cAMP and can be blocked by the addition of receptor antagonists. Receptor activity is thus a reflection of the amount of cAMP present within cells which can be detected using standard in vitro technology.
Cell Culture: Cultured SK-N-MC neuroblastoma cells that endogenously express the hCGRP receptor (ATCC) are grown in Eagle's Minimum essential medium (HYCLONE™) supplemented with 10% heat-inactivated Fetal bovine serum (FBS; GIBCO®), Non-Essential Amino Acids (GIBCO®), 1 mM sodium pyruvate, 2 mM L-glutamine, 100 U/mL of penicillin, and 10 μg/mL of streptomycin to about 70% confluency. After providing fresh medium, the cells are incubated at 37° C. overnight. On the day of the assay, cells are detached using ACCUTASE® (MP Biomedicals), resuspended in assay buffer [Hank's Balanced Salt Solution/Dulbecco's phosphate-buffered saline with […] each of CaCl2 and MgCl2 mixed 1:2, 3.3 mM 4-(2-hydroxyethyl)-1-piperazineethanesulfonic acid, 0.03% bovine serum albumin, and 0.5 mM 1-methyl-3-isobutylxanthine (as inhibitor of cAMP)], and seeded 3-5K/well into 384-well, poly-D-lysine coated white plates (BD Biosciences).
Inhibition of cAMP Production: For dose-response studies, compounds are serially diluted 1:3 in dimethyl sulfoxide and then 1:10 into assay buffer. […]
Data Analysis: The amount of intracellular cAMP is quantitated using HTRF technology (Cisbio) as per vendor instructions. […] The HTRF signal is immediately detected using an ENVISION® plate reader (Perkin-Elmer) to calculate the ratio of fluorescence at […]. […] Relative […] values are calculated from the top-bottom range of the concentration response curve using a four-parameter logistic curve fitting program (ACTIVITYBASE® v5.3.1.22 or GENEDATA SCREENER® v12.0.4), and Kb values are estimated as agonist-corrected IC50 values using the equation: […]

[2] = molecular target: T2, ABCB1, human P-glycoprotein (Pgp) (Homo sapiens, UniProt P08183); test: In vitro determination of efflux by Pgp, bi-directional transport across MDCKII cells; type: in vitro ADME; conditions: MDCKII-ABCB1, 5 μM substrate, 60 min, B-A/A-B Papp ratios with and without inhibitor
T2 construct: host or cells: MDCKII cells
Procedure: Cell Culture: MDCKII cells stably expressing human wild-type ABCB1 (Pgp) are obtained from the Netherlands Cancer Institute (Amsterdam, The Netherlands). MDCK cells are maintained as described previously (Desai et al., Mol Pharm 10:1249-1261, 2013).
Bi-directional transport across MDCK cells: The assay is essentially conducted as described previously (Desai et al., Mol Pharm 10:1249-1261, 2013). Transport is measured in both directions across uninhibited and inhibited cell monolayers using a substrate concentration of 5 μM diluted from a 10 mM DMSO stock solution (final DMSO concentration of 0.05%) and a single 60-min time interval. […] The apparent permeability coefficients (Papp) are estimated as the slope of the mass transported per 60 min relative to the total recovered mass. The basal-to-apical (B-A)/apical-to-basal (A-B) Papp ratios are calculated in the absence or presence of inhibitor in each cell line for net efflux ratio (NER).

T1 sequence (Q16602 23-461): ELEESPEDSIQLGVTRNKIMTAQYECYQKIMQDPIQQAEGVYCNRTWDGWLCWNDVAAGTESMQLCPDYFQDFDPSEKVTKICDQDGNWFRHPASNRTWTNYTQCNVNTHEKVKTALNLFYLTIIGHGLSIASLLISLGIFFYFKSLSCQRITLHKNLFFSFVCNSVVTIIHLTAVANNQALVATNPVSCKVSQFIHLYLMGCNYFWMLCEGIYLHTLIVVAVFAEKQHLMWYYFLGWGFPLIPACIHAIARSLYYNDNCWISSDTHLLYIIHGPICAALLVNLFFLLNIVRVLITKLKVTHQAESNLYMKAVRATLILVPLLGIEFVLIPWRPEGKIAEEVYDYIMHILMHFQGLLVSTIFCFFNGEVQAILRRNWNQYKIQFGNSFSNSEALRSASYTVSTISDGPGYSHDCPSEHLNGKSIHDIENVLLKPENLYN
T1 sequence (O60894 27-148): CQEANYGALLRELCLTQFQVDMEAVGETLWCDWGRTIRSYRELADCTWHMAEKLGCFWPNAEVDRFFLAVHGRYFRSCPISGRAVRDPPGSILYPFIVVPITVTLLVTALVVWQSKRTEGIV
T2 sequence (P08183 whole entry): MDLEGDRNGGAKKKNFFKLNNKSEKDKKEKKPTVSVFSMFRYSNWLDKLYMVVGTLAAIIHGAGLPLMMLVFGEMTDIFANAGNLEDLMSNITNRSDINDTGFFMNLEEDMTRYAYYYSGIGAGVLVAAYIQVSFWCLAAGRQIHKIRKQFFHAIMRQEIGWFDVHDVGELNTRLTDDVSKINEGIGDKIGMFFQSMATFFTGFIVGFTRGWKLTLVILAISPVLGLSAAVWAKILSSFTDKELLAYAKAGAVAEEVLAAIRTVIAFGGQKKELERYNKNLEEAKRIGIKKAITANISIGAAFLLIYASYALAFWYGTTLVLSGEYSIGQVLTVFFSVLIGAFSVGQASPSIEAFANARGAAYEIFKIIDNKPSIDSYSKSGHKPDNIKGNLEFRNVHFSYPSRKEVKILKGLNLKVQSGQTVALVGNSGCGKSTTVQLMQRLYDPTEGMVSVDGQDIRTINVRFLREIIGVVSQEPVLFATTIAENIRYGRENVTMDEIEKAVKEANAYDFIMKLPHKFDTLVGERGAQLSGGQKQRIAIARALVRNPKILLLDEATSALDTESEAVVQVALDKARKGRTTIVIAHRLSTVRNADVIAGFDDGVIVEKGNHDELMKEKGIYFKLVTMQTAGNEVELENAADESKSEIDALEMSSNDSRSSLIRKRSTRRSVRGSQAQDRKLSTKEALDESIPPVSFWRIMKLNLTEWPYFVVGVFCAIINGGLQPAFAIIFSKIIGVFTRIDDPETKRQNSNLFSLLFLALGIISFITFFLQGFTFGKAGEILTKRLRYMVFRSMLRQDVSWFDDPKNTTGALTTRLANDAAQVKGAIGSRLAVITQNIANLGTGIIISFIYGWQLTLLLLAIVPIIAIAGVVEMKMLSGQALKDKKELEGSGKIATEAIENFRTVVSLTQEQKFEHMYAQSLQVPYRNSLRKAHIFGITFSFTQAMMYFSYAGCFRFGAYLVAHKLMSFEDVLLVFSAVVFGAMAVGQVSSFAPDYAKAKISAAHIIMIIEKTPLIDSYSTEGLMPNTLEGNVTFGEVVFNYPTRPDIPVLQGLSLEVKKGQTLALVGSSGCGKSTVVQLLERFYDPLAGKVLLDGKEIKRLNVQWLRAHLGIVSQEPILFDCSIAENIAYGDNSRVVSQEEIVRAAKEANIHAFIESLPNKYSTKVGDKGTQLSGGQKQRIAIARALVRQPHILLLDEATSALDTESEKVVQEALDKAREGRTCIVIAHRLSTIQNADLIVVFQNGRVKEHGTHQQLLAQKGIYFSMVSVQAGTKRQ

Kb [1] | net efflux ratio (NER) for efflux by Pgp [2] | SMILES
0.1 ± 0.02 nM | – | Cc1cc(N2CC(F)C2)cc(OCc2ccc([C@@H](C)[C@@]3(C)C(=O)NC[C@@H]3CF)cc2)n1 [Example 3, (3R,4R)-3-[(1R)-1-[4-[[4-(3-fluoroazetidin-1-yl)-6-methyl-2-pyridyl]oxymethyl]phenyl]ethyl]-4-(fluoromethyl)-3-methyl-pyrrolidin-2-one]
0.14 ± 0.02 nM | 1.6 | Cc1cc(N2CC(F)C2)cc(OCc2ccc([C@@H](C)[C@@]3(C)C(=O)NC[C@@H]3C)cc2)n1 [Example 2, (3R,4R)-3-[(1R)-1-[4-[[4-(3-fluoroazetidin-1-yl)-6-methyl-2-pyridyl]oxymethyl]phenyl]ethyl]-3,4-dimethyl-pyrrolidin-2-one]
0.08 ± 0.01 nM | 1.9 | Cc1cc(N2CCC2)cc(OCc2ccc([C@@H](C)[C@@]3(C)C(=O)NC[C@@H]3CF)cc2)n1 [Example 1, (3R,4R)-3-[(1R)-1-[4-[[4-(azetidin-1-yl)-6-methyl-2-pyridyl]oxymethyl]phenyl]ethyl]-4-(fluoromethyl)-3-methyl-pyrrolidin-2-one]
